{"source": "patent US20130280187A1", "about": "“Compositions and Methods for Improving the Appearance of Facial Pores” (THE PROCTER & GAMBLE COMPANY, priority 2012, published 2013)", "key": {"procollagen I": {"system": "procollagen I", "assay": "In vitro skin biomarker test, procollagen I ELISA in MatTek human skin equivalent", "assay_type": "cell-based", "settings": "average of cultures, 24 hours after treatment; Glyco-Repair 3% topical, TGF-b 2 ng/mL in media", "procedure": "(§1) The model used in the test is a MatTek™ brand human skin equivalent available from the MatTek Corporation, which is a full thickness culture system that emulates normal human skin properties and function. The MatTek™ brand skin model contains a three-dimensional, highly differentiated human epidermis with 8-12 cell layers including basal, spinous, granular and stratum corneum layers. The epidermis is grown above a human dermal fibroblast-containing collagen matrix. The skin model is configured to permit the topical application of test materials to the stratum corneum surface of the model. The skin model cultures are supplied in 24-well plate. Each well of the plate includes a snap-well fitting and the skin culture in a media-supplemented agarose gel.\n(§2) Prior to testing, the skin model cultures are examined for visual defects and equilibrated overnight at 37° C., 5% CO2, and 95% RH. The skin cultures were transferred to fresh 24-well plates by removing the snap-well fitting along with the skin culture and placing it in a well of the new plate. […]\n(§3) Twenty-four hours after treatment, the skin cultures were removed from the incubator and visually inspected for defects (e.g., to see if media leaked up through the culture insert). […] The supernatant was collected and analyzed with a Micro BCA kit to quantitate protein concentration. […]"}, "hyalauronic acid": {"system": "hyalauronic acid", "assay": "In vitro skin biomarker test, hyalauronic acid ELISA in MatTek human skin equivalent", "assay_type": "cell-based", "settings": "24 hours after treatment, Glyco-Repair 3% topical, TGF-b 2 ng/mL in media", "procedure": "as §1, §2, §3"}}, "note": "“And” between values parts separate entries of the source, which are not always exact repeats. Equal entries are not always repeated."}
{"substance": "transforming growth factor beta [TGF-b]", "values": [{"measurement": "Avg Normalized Protein (procollagen I)", "setting": "procollagen I", "value": 29.8}, {"measurement": "Avg (normalized protein, hyalauronic acid)", "setting": "hyalauronic acid; average of cultures", "value": 2.8}, {"measurement": "HA", "setting": "hyalauronic acid; single skin cultures", "value": "562 ng/mL and 480 ng/mL and 598 ng/mL and 545 ng/mL and 568 ng/mL"}]}
